From PubChem BioAssay (NCI)
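Compound exposure: 48 hours, 5 concentrations, 96-well plates. TGI: total growth inhibition.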

Key:
Assay in all cases: DTP human tumour cell line panel, 48 h
ACHN renal = system: ACHN renal
UACC-62 melanoma = system: UACC-62 melanoma
NCI-H522 lung = system: NCI-H522 lung
OVCAR-4 ovarian = system: OVCAR-4 ovarian
HOP-62 NSCLC = system: HOP-62 NSCLC
RPMI-8226 leukemia = system: RPMI-8226 leukemia
CAKI-1 renal = system: CAKI-1 renal
COLO 205 colon = system: COLO 205 colon
M14 melanoma = system: M14 melanoma
SF-268 CNS = system: SF-268 CNS
OVCAR-8 ovarian = system: OVCAR-8 ovarian
U251 CNS = system: U251 CNS
OVCAR-5 ovarian = system: OVCAR-5 ovarian
SK-MEL-5 melanoma = system: SK-MEL-5 melanoma
OVCAR-3 ovarian = system: OVCAR-3 ovarian
SNB-19 CNS = system: SNB-19 CNS
MDA-MB-231 breast = system: MDA-MB-231 breast
PC-3 prostate = system: PC-3 prostate
MDA-N = system: MDA-N
DU-145 prostate = system: DU-145 prostate

Row | Structure (SMILES) | TGI (ACHN renal) [µM] | TGI (UACC-62 melanoma) [µM] | TGI (NCI-H522 lung) [µM] | TGI (OVCAR-4 ovarian) [µM] | TGI (HOP-62 NSCLC) [µM] | TGI (RPMI-8226 leukemia) [µM] | TGI (CAKI-1 renal) [µM] | TGI (COLO 205 colon) [µM] | TGI (M14 melanoma) [µM] | TGI (SF-268 CNS) [µM] | TGI (OVCAR-8 ovarian) [µM] | TGI (U251 CNS) [µM] | TGI (OVCAR-5 ovarian) [µM] | TGI (SK-MEL-5 melanoma) [µM] | TGI (OVCAR-3 ovarian) [µM] | TGI (SNB-19 CNS) [µM] | TGI (MDA-MB-231 breast) [µM] | TGI (PC-3 prostate) [µM] | TGI (MDA-N) [µM] | TGI (DU-145 prostate) [µM]
1 | Cn1cnc(CCc2ccccc2)n1 | > 100 | > 100 | > 100 | > 100 | > 100 | > 100 | > 100 | > 100 | > 100 | > 100 | > 100 | > 100 | > 100 | > 100 | > 100 |  |  |  |  | 
2 | CC(=O)OCC1OC(OC2C(CSC3OC(COC(C)=O)C(OC(C)=O)C(OC(C)=O)C3OC(C)=O)OC(OC(C)=O)C(OC(C)=O)C2OC(C)=O)C(OC(C)=O)C(OC(C)=O)C1OC(C)=O (stereo unspecified) | > 100 | > 100 | > 100 | > 100 | > 100 | > 100 | > 100 | > 100 | > 100 | > 100 | > 100 | > 100 | > 100 | > 100 | > 100 | > 100 |  |  |  | 
3 | NC(=O)NNc1nc2ccccc2c(=O)n1NC(=O)C(=O)Nc1ccc(Cl)cc1Cl | > 100 | > 100 | > 100 | > 100 | > 100 | > 100 | > 100 |  | > 100 | > 100 | > 100 | > 100 | > 100 | > 100 | > 100 | > 100 | > 100 | > 100 | > 100 | 
4 | COc1ccc(C2=Nc3ccccc3NC(=O)C2)cc1 | > 100 | > 100 | > 100 | > 100 | 45.6 |  | > 100 | > 100 | > 100 | 78.1 | > 100 | 82.3 | > 100 | > 100 | > 100 | > 100 |  |  |  | 
5 | O=S(=O)(O)c1ccc(O)c2ncc(Cl)cc12 | > 100 | > 100 |  | > 100 | > 100 | > 100 | > 100 | > 100 | > 100 |  | > 100 | > 100 | > 100 | > 100 | > 100 | > 100 | > 100 | > 100 | > 100 | > 100
6 | O=C1C(Br)=CC2(C=C1Br)CCNC1=C2C(=O)c2ccccc2C1=O | 27.9 | 29.6 | 14.4 |  | 30.7 | 41 | 72.4 | 15.9 | 69.3 | 63.3 | 98 |  |  | 28.5 | > 100 |  |  |  |  | 
7 | N#CCc1nc2ccccc2c(=O)[nH]1 | > 100 |  |  | > 100 | > 100 |  | > 100 | > 100 | > 100 |  | > 100 | > 100 | > 100 | > 100 | > 100 | > 100 | > 100 | > 100 | > 100 | > 100
8 | CC1=C(C(=O)O)N2C(=O)[C@@H](NC(=O)C(c3ccc(O)cc3)N3CSC(=S)N(C(C)C)C3)C2SC1 (stereo partly specified) | > 100 | > 100 | > 100 | > 100 | > 100 | > 100 |  | > 100 | > 100 | > 100 | > 100 | > 100 | > 100 | > 100 | > 100 | > 100 |  |  |  | 
9 | NC1CC(=O)c2sc(I)cc21 (stereo unspecified) | > 100 | > 100 |  |  | > 100 | > 100 | > 100 | > 100 | > 100 | > 100 | > 100 | > 100 | > 100 | > 100 | > 100 | > 100 | > 100 | > 100 | > 100 | > 100
10 | C=CC/C=C/Cc1csc(C(C)(C)C(O)C/C=C/C(=C)CCNC(=O)OC)n1 (stereo unspecified) | > 100 | > 100 | > 100 | > 100 | > 100 | > 100 | > 100 | > 100 | > 100 | > 100 | > 100 | > 100 | > 100 | > 60.5 | > 100 | > 100 |  | > 100 | > 100 | > 100
11 | CC1SC2=NC3=C(c4ccccc4C3=O)C(c3ccc(F)cc3)N2C1=O (stereo unspecified) | > 100 | > 100 | > 100 | > 100 | > 100 | > 100 | > 100 | > 100 | > 100 | > 100 | > 100 | > 100 | > 100 | > 100 | > 100 | > 100 |  |  |  | 
12 | CC(C)[C@H]1CO[C@]2(C)[C@@H]3CN(Cc4ccccc4)C[C@@H]3C(=O)N12 | > 100 | > 100 | > 100 | > 100 | > 100 | > 100 | > 100 | > 100 | > 100 | > 100 | > 100 | > 100 |  | > 100 | > 100 | > 100 |  |  |  | 
13 | O=C(c1cccc2ccccc12)C1(Br)S(=O)(=O)OCCOS1(=O)=O | > 100 |  |  | > 100 | > 100 | > 100 | > 100 | > 100 | > 100 |  | > 100 | > 100 | > 100 | > 100 | > 100 | > 100 | > 100 |  | > 100 | > 100
14 | CCOC(=O)c1c(N)sc2c1C(C(=O)OCC)CC2 (stereo unspecified) | > 100 | > 100 |  |  | > 100 | > 100 |  | > 100 | > 100 |  | > 100 | > 100 | > 100 | > 100 |  | > 100 | > 100 | > 100 | > 100 | 
15 | Cc1c(/C=N/NC(=O)c2cc(Br)cc(Br)c2O)c(=O)n(-c2ccccc2)n1C | > 100 | 41.7 | > 100 | > 100 | > 100 | > 100 | 94.2 | > 100 | > 100 | > 100 | > 100 | > 100 | > 100 | > 100 | 95.7 | > 100 |  |  |  | 
16 | Cc1csc(=S)n1OC(=O)NC1CCCCC1 | > 100 | > 67.2 | > 80.9 | > 32.5 | > 100 | > 71.8 | > 100 | > 40.2 | > 100 | > 100 | > 100 | > 100 |  | > 100 | > 100 | > 100 |  |  |  | 
17 | COc1cc(Cn2c3ccccc3c3cc(C)c4c(c32)C=CC(C)(CCC=C(C)C)O4)cc2c1[nH]c1ccccc12 (stereo unspecified) | > 100 | > 100 | > 100 | > 100 | > 100 | > 100 | > 100 | > 100 | > 100 | > 100 | > 100 | > 100 | > 100 | > 100 | > 100 | > 100 |  |  |  | 
18 | COC(O)C(=O)c1c2c(cc3c1CC1(Cc4cc5c(cc4C1)CCC5)C3)CCC2 (stereo unspecified) | 29.3 |  | 36.1 | 33.9 | 30.2 | 30 | 37.4 |  | 31 | 36.1 | 33.6 | 25.7 | 33.5 | 31.3 | 28.9 | 36.1 | 29.2 | 30.8 |  | 33.7
19 | NC(=O)N=C(N(Cc1ccccc1)Cc1ccccc1)N(Cc1ccccc1)Cc1ccccc1 | > 100 | > 100 | > 100 | > 75.6 | > 65.8 | > 100 | > 100 |  |  | > 100 | > 100 | > 63.7 | > 100 | > 100 | > 100 | > 100 | > 100 | > 100 |  | > 100
20 | CCOC(=O)N/N=C(/OCC)c1ccccc1 | > 100 | > 100 | > 100 | > 100 | > 100 | > 100 | > 100 | > 100 |  | > 100 | > 100 | > 100 | > 100 | > 100 | > 100 | > 100 | > 100 |  | > 100 | > 100
21 | O=C(CSc1nnc(-c2ccc(N=Cc3ccc(Cl)cc3)cc2)o1)Nc1ccc(Cl)cc1Cl | > 100 | 60.3 | 85.9 | 88 | 74.5 | > 100 | > 100 | 78 | 36.1 | 64.9 | 83.7 | 69.9 | > 100 | 63.2 |  | 85 |  |  |  | 
22 | COC(=O)C(CC12CC3CC(CC(C3)C1)C2)NC(=O)C(N)CC(=O)O (stereo unspecified) | > 100 | > 100 | > 100 | > 100 | > 100 | > 100 | > 100 | > 100 |  | > 100 | > 100 | > 100 | > 100 | > 100 |  | > 100 |  | > 100 | > 100 | > 100
23 | CCCCCCCCCCCC(=O)Oc1c(Cl)cc(Cl)c(OC(=O)C(=O)Oc2c(Cl)cc(Cl)c(OC(=O)CCCCCCCCCCC)c2Cl)c1Cl | > 100 | > 100 | > 100 | > 100 | > 100 | > 100 | > 100 | > 100 |  | > 100 | > 100 | > 100 | > 100 | > 100 |  | > 100 |  | > 100 | > 100 | > 100
24 | Nn1c(NNC(=O)C(=O)Nc2cc(Cl)c(Cl)cc2Cl)n[nH]c1=S | > 100 | > 100 | > 100 | > 100 | > 100 |  | > 100 | > 100 | > 100 | > 100 | > 100 | > 100 | > 100 | > 100 | > 100 | > 100 |  |  |  | 
25 | O=C(CCC(NC(=O)OCc1ccccc1)C(=O)OCc1ccccc1)Nc1ccc(OCc2ccccc2)cc1 (stereo unspecified) | > 31.6 | > 31.6 | > 100 | > 31.6 | > 100 | > 10 | > 31.6 | > 31.6 | > 100 | > 31.6 | 20.2 | 28 | > 100 | > 10 | > 100 | > 31.6 | 25.6 | 28.4 |  | > 31.6
26 | CC1(C)C(=NNC(=O)C[N+](C)(C)C)C(C)(C)C1=NNC(=O)C[N+](C)(C)C | > 100 | > 100 | > 100 | > 100 | > 100 |  | > 100 | > 100 | > 100 | > 100 | > 100 | > 100 | > 100 | > 100 | > 100 | > 100 |  |  |  | 
27 | C[C@H](OCc1ccccc1)C(=O)N1CCS(=O)(=O)N2CCC[C@H]2C1=O | > 100 | > 100 | > 100 | > 100 | > 100 | > 100 | > 100 | > 100 | > 100 | > 100 | > 100 | > 100 | > 100 | > 100 | > 100 | > 100 |  |  |  | 
